# Test results taken from patent publication US8921363B2, “Derivatives of 1 H-isoindol-3-amine, 1 H-iso-aza-indol-3amine, 3,4-dihydroisoquinolin-1-amine, and 1,4-dihydroisoquinolin-3-amine as beta-secretase inhibitors” (Amgen Inc., priority 2010, dated 2014).
# Tests used:
# [1] = system: Aβ40 in conditioned medium of cells expressing amyloid precursor protein; test: In vitro BACE cell-based assay (HEK cell assay, Aβ40 sandwich ELISA); conditions: Homo sapiens, HEK293; average IC50; Aβ40 after 24 h incubation
# [2] = molecular target: BACE1 (Homo sapiens, UniProt P56817); test: In vitro enzymatic BACE FRET assay; assay type: biochemical
# Experimental: In Vitro Enzymatic BACE FRET (fluorescence resonance energy transfer) Assay (Enzyme Assay data in the Example Table I)
# The assay buffer used in this screen is 0.05 M acetate, pH 4.2, 10% DMSO final, 100 uM genapol (which is a nonionic detergent, below its Critical Micelle Concentration). […] This assay is effectively started by the addition of FRET substrate (50 nM) and the combination is incubated for one hour. The FRET assay is terminated with by addition of Tris buffer, which raises the pH to neutrality, and the fluorescence is determined. The FRET substrate is a peptide with commercially available fluorophore and quencher, on opposite sides of the BACE cleavage site. Proteolytic cleavage of the FRET substrate releases quenching of fluorescence (excitation […] and […]).
# Chain of BACE1 (P56817 46-501): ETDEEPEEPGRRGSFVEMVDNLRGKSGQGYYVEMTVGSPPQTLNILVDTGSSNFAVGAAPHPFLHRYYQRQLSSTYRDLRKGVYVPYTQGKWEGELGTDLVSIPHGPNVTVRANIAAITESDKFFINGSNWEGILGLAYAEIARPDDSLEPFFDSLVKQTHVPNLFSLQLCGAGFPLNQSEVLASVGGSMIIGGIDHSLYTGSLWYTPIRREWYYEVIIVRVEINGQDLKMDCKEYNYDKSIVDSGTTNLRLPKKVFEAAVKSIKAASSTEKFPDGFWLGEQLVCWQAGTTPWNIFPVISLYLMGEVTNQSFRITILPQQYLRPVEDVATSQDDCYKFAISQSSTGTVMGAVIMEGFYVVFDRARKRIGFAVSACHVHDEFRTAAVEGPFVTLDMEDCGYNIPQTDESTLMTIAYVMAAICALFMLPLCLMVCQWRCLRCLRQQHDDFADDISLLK
Compound,IC50 [1],IC50 [2]
"NC1=NC2(c3cc(Br)ccc3Oc3c2cc(Cl)nc3F)c2cccnc21 (stereo not drawn) [Example 17c, 7-bromo-3-chloro-1-fluorospiro[chromeno[2,3-c]pyridine-5,5′-pyrrolo[3,4-b]pyridin]-7′-amine]",> 10000 nM,> 10000 nM
"NC1=NC2(c3ccccc3O1)c1cc(-c3cccnc3)ccc1Oc1cnc(-c3ccnc(F)c3)cc12 (stereo not drawn) [Example 23, 3′-(2-fluoropyridin-4-yl)-7′-(pyridin-3-yl)spiro[benzo[e][1,3]oxazine-4,5′-chromeno[2,3-c]pyridin]-2-amine]",98 nM,2.9 nM
"NC1=N[C@@]2(c3cc(-c4cccnc4F)ccc3Oc3cnc(-c4cccnc4F)cc32)c2ccccc21 (single isomer, unassigned) [Example 10-D]",> 10000 nM,> 10000 nM
"NC1=N[C@@]2(c3cc(-c4cccnc4F)ccc3Oc3c2cc(Cl)nc3F)c2cnccc21 [Example 14d-1, (R)-3-chloro-1-fluoro-7-(2-fluoropyridin-3-yl)spiro[chromeno[2,3-c]pyridine-5,3′-pyrrolo[3,4-c]pyridin]-1′-amine]",> 10000 nM,6570 nM
"NC1=N[C@]2(c3cc(Br)ccc3Oc3c2cc(Cl)nc3F)c2cnccc21 (single isomer, unassigned) [Example 14c-2]",> 10000 nM,3440 nM
"NC1=NC2(c3cc(-c4cccnc4F)ccc3Oc3c2cc(C2=CCCOC2)nc3F)c2ccccc21 (racemic) [Example 7, 3-(5,6-dihydro-2H-pyran-3-yl)-1-fluoro-7-(2-fluoropyridin-3-yl)spiro[chromeno[2,3-c]pyridine-5,1′-isoindol]-3′-amine]",13 nM,1 nM
"NC1=N[C@]2(c3cc(-c4cccnc4F)ccc3Oc3c2cc(Cl)nc3F)c2cccnc21 [Example 17d-2, (S)-3-chloro-1-fluoro-7-(2-fluoropyridin-3-yl)spiro[chromeno[2,3-c]pyridine-5,5′-pyrrolo[3,4-b]pyridin]-7′-amine]",1570 nM,16 nM
"NC1=N[C@@]2(c3cc(-c4cccnc4F)ccc3Oc3c2cc(-c2ccnc(F)c2)nc3F)c2ccccc21 (single isomer, unassigned) [Example 5-A]",1860 nM,18.2 nM
"NC1=NC2(c3cc(-c4cccnc4F)ccc3Oc3c2cc(-c2ccnc(F)c2)nc3F)c2ccccc21 (racemic) [Example 5e, 1-fluoro-7-(2-fluoropyridin-3-yl)-3-(2-fluoropyridin-4-yl)spiro[chromeno[2,3-c]pyridine-5,1′-isoindol]-3′-amine]",8 nM,1 nM
"NC1=NC2(c3cc(-c4cccnc4F)ccc3Oc3cnc(C4CCOCC4)cc32)c2ccccc21 (racemic) [Example 12, 7-(2-fluoropyridin-3-yl)-3-(tetrahydro-2H-pyran-4-yl)spiro[chromeno[2,3-c]pyridine-5,1′-isoindol]-3′-amine]",13 nM,4 nM
"NC1=NC2(c3cc(-c4cccnc4F)ccc3Oc3c2cc(Cl)nc3F)c2ccccc21 (stereo not drawn) [Example 5d, 3-chloro-1-fluoro-7-(2-fluoropyridin-3-yl)spiro[chromeno[2,3-c]pyridine-5,1′-isoindol]-3′-amine]",224 nM,6 nM
"NC1=N[C@@]2(c3cc(Br)ccc3Oc3c2cc(Cl)nc3F)c2cnccc21 (single isomer, unassigned) [Example 14c-1]",> 10000 nM,> 10000 nM
"NC1=N[C@]2(c3cc(-c4cccnc4F)ccc3Oc3c2cc(N2CCOCC2)nc3F)c2cccnc21 [Example 17-G, (S)-1-fluoro-7-(2-fluoropyridin-3-yl)-3-morpholinospiro[chromeno[2,3-c]pyridine-5,5′-pyrrolo[3,4-b]pyridin]-7′-amine]",2 nM,1 nM
"NC1=NC2(c3cc(-c4cccnc4F)ccc3Oc3cnc(Cl)cc32)c2ccccc21 (racemic) [Example 10d, 3-chloro-7-(2-fluoropyridin-3-yl)spiro[chromeno[2,3-c]pyridine-5,1′-isoindol]-3′-amine]",140 nM,36 nM
"NC1=N[C@]2(c3cc(-c4cccnc4F)ccc3Oc3cnc(-c4cccnc4F)cc32)c2ccccc21 (single isomer, unassigned) [Example 10-C]",> 10000 nM,900 nM
"NC1=NC2(c3cc(-c4cccnc4F)ccc3Oc3c2cc(N2CCOCC2)nc3F)c2ccccc21 (racemic) [Example 8, 1-fluoro-7-(2-fluoropyridin-3-yl)-3-morpholinospiro[chromeno[2,3-c]pyridine-5,1′-isoindol]-3′-amine]",14 nM,4.2 nM

Compound,IC50 [1],IC50 [2]
"CC(C)(C)C#Cc1cc2c(cn1)Oc1ccc(-c3cccnc3F)cc1C21N=C(N)c2ccccc21 (racemic) [Example 13, 3-(3,3-dimethylbut-1-ynyl)-7-(2-fluoropyridin-3-yl)spiro[chromeno[2,3-c]pyridine-5,1′-isoindol]-3′-amine]",70 nM,6 nM
"NC1=NC2(c3cc(-c4cccnc4F)ccc3Oc3c2cc(Cl)nc3F)c2cccnc21 (stereo not drawn) [Example 17d, 3-chloro-1-fluoro-7-(2-fluoropyridin-3-yl)spiro[chromeno[2,3-c]pyridine-5,5′-pyrrolo[3,4-b]pyridin]-7′-amine 2,2,2-trifluoroacetate]",4370 nM,88 nM
"NC1=NC2(c3ccccc3O1)c1cc(-c3cncnc3)ccc1Oc1cnc(-c3ccnc(F)c3)cc12 (stereo not drawn) [Example 20, 3′-(2-fluoropyridin-4-yl)-7′-(pyrimidin-5-yl)spiro[benzo[c][1,3]oxazine-4,5-chromeno[2,3-c]pyridin]-2-amine]",106 nM,2.7 nM
"NC1=NC2(c3cc(Br)ccc3Oc3cnc(Cl)cc32)c2ccncc21 (stereo not drawn) [Example 16, 7-bromo-3-chlorospiro[chromeno[2,3-c]pyridine-5,1′-pyrrolo[3,4-c]pyridin]-3′-amine]",> 10000 nM,9090 nM
"NC1=N[C@]2(c3cc(-c4cccnc4F)ccc3Oc3c2cc(-c2ccnc(F)c2)nc3F)c2ccccc21 (single isomer, unassigned) [Example 5-B]",11 nM,0.6 nM
"NC1=NC2(c3cc(-c4cccnc4F)ccc3Oc3cnc(-c4ccnc(F)c4)cc32)c2cccnc2O1 (racemic) [Example 24, 7-(2-fluoropyridin-3-yl)-3-(2-fluoropyridin-4-yl)spiro[chromeno[2,3-c]pyridine-5,4-pyrido[3,2-e][1,3]oxazin]-2′-amine]",320 nM,1.8 nM
"NC1=N[C@@]2(c3cc(-c4cccnc4F)ccc3Oc3c2cc(Cl)nc3F)c2cccnc21 [Example 17d-1, (R)-3-chloro-1-fluoro-7-(2-fluoropyridin-3-yl)spiro[chromeno[2,3-c]pyridine-5,5′-pyrrolo[3,4-b]pyridin]-7′-amine]",> 10000 nM,> 10000 nM
"NC1=NC2(c3cc(-c4cccnc4F)ccc3Oc3cnc(Cl)cc32)c2ncccc2O1 (racemic) [Example 21, 3-chloro-7-(2-fluoropyridin-3-yl)spiro[chromeno[2,3-c]pyridine-5,4′-pyrido[2,3-e][1,3]oxazin]-2′-amine]",> 10000 nM,370 nM
"NC1=N[C@]2(c3cc(-c4cccnc4F)ccc3Oc3c2cc(C2=CCCOC2)nc3F)c2cccnc21 [Example 17-F, (S)-3-(5,6-dihydro-2H-pyran-3-yl)-1-fluoro-7-(2-fluoropyridin-3-yl)spiro[chromeno[2,3-c]pyridine-5,5′-pyrrolo[3,4-b]pyridin]-7′-amine]",3 nM,0.7 nM
"NC1=N[C@@]2(c3cc(Br)ccc3Oc3c2cc(Cl)nc3F)c2cccnc21 (single isomer, unassigned) [Example 17c-1]",> 10000 nM,> 10000 nM
"NC1=NC2(c3cc(-c4cccnc4F)ccc3Oc3c2cc(C2=CCOCC2)nc3F)c2ccccc21 (racemic) [Example 6, 3-(3,6-dihydro-2H-pyran-4-yl)-1-fluoro-7-(2-fluoropyridin-3-yl)spiro[chromeno[2,3-c]pyridine-5,1′-isoindol]-3′-amine]",3 nM,1 nM
"NC1=NC2(c3cc(-c4cccnc4F)ccc3Oc3c2cc(-c2ccnc(F)c2)nc3F)c2ncccc21 (racemic) [Example 15, 1-fluoro-7-(2-fluoropyridin-3-yl)-3-(2-fluoropyridin-4-yl)spiro[chromeno[2,3-c]pyridine-5,7′-pyrrolo[3,4-b]pyridin]-5′-amine]",11 nM,1 nM
"NC1=NC2(c3ccccc3O1)c1cc(-c3cccnc3F)ccc1Oc1cnc(-c3ccnc(F)c3)cc12 (stereo not drawn) [Example 19, 7′-(2-fluoropyridin-3-yl)-3′-(2-fluoropyridin-4-yl)spiro[benzo[e][1,3]oxazine-4,5′-chromeno[2,3-c]pyridin]-2-amine]",,2 nM
"NC1=NC2(c3cc(-c4cccnc4F)ccc3Oc3cnc(-c4ccnc(F)c4)cc32)c2ncccc2O1 (stereo not drawn) [Example 22, 7-(2-fluoropyridin-3-yl)-3-(2-fluoropyridin-4-yl)spiro[chromeno[2,3-c]pyridine-5,4′-pyrido[2,3-e][1,3]oxazin]-2′-amine]",805 nM,9.9 nM
"NC1=NC2(c3cc(-c4cccnc4F)ccc3Oc3c2cc(N2CCC(F)(F)C2)nc3F)c2ccccc21 (racemic) [Example 9, 3-(3,3-difluoropyrrolidin-1-yl)-1-fluoro-7-(2-fluoropyridin-3-yl)spiro[chromeno[2,3-c]pyridine-5,1′-isoindol]-3′-amine]",27 nM,5.3 nM
"NC1=N[C@@]2(c3cc(-c4cccnc4F)ccc3Oc3c2cc(C2=CCCOC2)nc3F)c2ccccc21 (single isomer, unassigned) [Example 7-A]",336 nM,78 nM
